Test results as given in patent US20170050957A1, “4-AMINO-6-(HETEROCYCLIC)PICOLINATES AND 6-AMINO-2-(HETEROCYCLIC)PYRIMIDINE-4-CARBOXYLATES AND THEIR USE AS HERBICIDES” (Dow AgroSciences LLC, priority 2013, published 2017).
Where two headings read alike, the source gives them in different places. Values belong to the molecule of their own block, whether it stands above or below them.

Key:
[1] = system: Key Broadleaf Weed and Crop Species; experiment: Post-emergent Test II herbicidal activity (Table 15); format: in vivo; settings: post-emergence, 336 h, 14 d; for pest or weed control at 35 g/ha: 35 g ai/ha; for pest or weed control at 70 g/ha: 70 g ai/ha; for pest or weed control at 140 g/ha: 140 g ai/ha
Method in brief: (§1)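 Herbicidal effect scored as percent visual injury, 14 d after post-emergent application. Spray solutions contained acetone, DMSO, isopropyl alcohol, crop oil concentrate and surfactant, applied at 187 L/ha to young plants (1-2 true leaves).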

[2] = system: Key Grass and Sedge Weeds as well as Grass Crops; experiment: Post-emergent Test II herbicidal activity (Table 16); format: in vivo; settings: post-emergence, 336 h, 14 d; for pest or weed control at 35 g/ha: 35 g ai/ha; for pest or weed control at 70 g/ha: 70 g ai/ha; for pest or weed control at 140 g/ha: 140 g ai/ha
Method in brief: as §1

[3] = Abutilon theophrasti, velvetleaf (Abutilon theophrasti), read-out: Visual Growth Reduction (%) 14 Days After Application, ABUTH
[4] = Amaranthus retroflexus, redroot pigweed (Amaranthus retroflexus), read-out: Visual Growth Reduction (%) 14 Days After Application, AMARE
[5] = Brassica napus, oilseed rape, canola (Brassica napus), read-out: Visual Growth Reduction (%) 14 Days After Application, BRSNN
[6] = Chenopodium album, lambsquarters (Chenopodium album), read-out: Visual Growth Reduction (%) 14 Days After Application, CHEAL
[7] = Euphorbia heterophylla, wild poinsettia (Euphorbia heterophylla), read-out: Visual Growth Reduction (%) 14 Days After Application, EPHHL
[8] = Helianthus annuus, sunflower (Helianthus annuus), read-out: Visual Growth Reduction (%) 14 Days After Application, HELAN
[9] = Cyperus esculentus, yellow nutsedge (Cyperus esculentus), read-out: Visual Growth Reduction (%) 14 Days After Application, CYPES
[10] = Echinochloa crus-galli, barnyardgrass (Echinochloa crus-galli), read-out: Visual Growth Reduction (%) 14 Days After Application, ECHCG
[11] = Oryza sativa, rice (Oryza sativa), read-out: Visual Growth Reduction (%) 14 Days After Application, ORYSA
[12] = Setaria faberi, giant foxtail (Setaria faberi), read-out: Visual Growth Reduction (%) 14 Days After Application, SETFA
[13] = Triticum aestivum, wheat, spring (Triticum aestivum), read-out: Visual Growth Reduction (%) 14 Days After Application, TRZAS
[14] = Zea mays, maize, corn (Zea mays), read-out: Visual Growth Reduction (%) 14 Days After Application, ZEAMX

melting point: 98 °C
SMILES: COC(=O)c1nc(-c2cc3ccoc3cc2F)cc(N)c1Cl [Compound 2.04]
pest or weed control at 35 g/ha [1, 3]: 75 to 84%
pest or weed control at 70 g/ha [1, 3]: 85 to 94%
pest or weed control at 140 g/ha [1, 3]: 95 to 100%
pest or weed control at 35 g/ha [1, 4]: 95 to 100%
pest or weed control at 70 g/ha [1, 4]: 95 to 100%
pest or weed control at 140 g/ha [1, 4]: 95 to 100%
pest or weed control at 35 g/ha [1, 5]: 0 to 29%
pest or weed control at 70 g/ha [1, 5]: 0 to 29%
pest or weed control at 140 g/ha [1, 5]: 30 to 44%
pest or weed control at 35 g/ha [1, 6]: 95 to 100%
pest or weed control at 70 g/ha [1, 6]: 95 to 100%
pest or weed control at 140 g/ha [1, 6]: 95 to 100%
pest or weed control at 35 g/ha [1, 7]: 95 to 100%
pest or weed control at 70 g/ha [1, 7]: 95 to 100%
pest or weed control at 140 g/ha [1, 7]: 95 to 100%
pest or weed control at 35 g/ha [1, 8]: 0 to 29%
pest or weed control at 70 g/ha [1, 8]: 0 to 29%
pest or weed control at 140 g/ha [1, 8]: 30 to 44%
pest or weed control at 35 g/ha [2, 9]: 0 to 29%
pest or weed control at 70 g/ha [2, 9]: 0 to 29%
pest or weed control at 140 g/ha [2, 9]: 30 to 44%
pest or weed control at 35 g/ha [2, 10]: 60 to 74%
pest or weed control at 70 g/ha [2, 10]: 95 to 100%
pest or weed control at 140 g/ha [2, 10]: 95 to 100%
pest or weed control at 35 g/ha [2, 11]: 0 to 29%
pest or weed control at 70 g/ha [2, 11]: 0 to 29%
pest or weed control at 140 g/ha [2, 11]: 0 to 29%
pest or weed control at 35 g/ha [2, 12]: 60 to 74%
pest or weed control at 70 g/ha [2, 12]: 75 to 84%
pest or weed control at 140 g/ha [2, 12]: 85 to 94%
pest or weed control at 35 g/ha [2, 13]: 0 to 29%
pest or weed control at 70 g/ha [2, 13]: 30 to 44%
pest or weed control at 140 g/ha [2, 13]: 45 to 59%
pest or weed control at 35 g/ha [2, 14]: 60 to 74%
pest or weed control at 70 g/ha [2, 14]: 75 to 84%
pest or weed control at 140 g/ha [2, 14]: 85 to 94%

melting point: 160 °C
SMILES: COC(=O)c1nc(-c2cc3ccoc3cc2F)nc(N)c1OC [Compound 2.05]
pest or weed control at 35 g/ha [1, 3]: 0 to 29%
pest or weed control at 70 g/ha [1, 3]: 0 to 29%
pest or weed control at 140 g/ha [1, 3]: 0 to 29%
pest or weed control at 35 g/ha [1, 4]: 85 to 94%
pest or weed control at 70 g/ha [1, 4]: 75 to 84%
pest or weed control at 140 g/ha [1, 4]: 95 to 100%
pest or weed control at 35 g/ha [1, 5]: 0 to 29%
pest or weed control at 70 g/ha [1, 5]: 0 to 29%
pest or weed control at 140 g/ha [1, 5]: 0 to 29%
pest or weed control at 35 g/ha [1, 6]: 0 to 29%
pest or weed control at 70 g/ha [1, 6]: 0 to 29%
pest or weed control at 140 g/ha [1, 6]: 45 to 59%
pest or weed control at 35 g/ha [1, 7]: 30 to 44%
pest or weed control at 70 g/ha [1, 7]: 30 to 44%
pest or weed control at 140 g/ha [1, 7]: 45 to 59%
pest or weed control at 35 g/ha [1, 8]: 0 to 29%
pest or weed control at 70 g/ha [1, 8]: 0 to 29%
pest or weed control at 140 g/ha [1, 8]: 30 to 44%
pest or weed control at 35 g/ha [2, 9]: 0 to 29%
pest or weed control at 70 g/ha [2, 9]: 0 to 29%
pest or weed control at 140 g/ha [2, 9]: 0 to 29%
pest or weed control at 35 g/ha [2, 10]: 0 to 29%
pest or weed control at 70 g/ha [2, 10]: 0 to 29%
pest or weed control at 140 g/ha [2, 10]: 0 to 29%
pest or weed control at 35 g/ha [2, 11]: 0 to 29%
pest or weed control at 70 g/ha [2, 11]: 0 to 29%
pest or weed control at 140 g/ha [2, 11]: 0 to 29%
pest or weed control at 35 g/ha [2, 12]: 0 to 29%
pest or weed control at 70 g/ha [2, 12]: 0 to 29%
pest or weed control at 140 g/ha [2, 12]: 0 to 29%
pest or weed control at 35 g/ha [2, 13]: 0 to 29%
pest or weed control at 70 g/ha [2, 13]: 0 to 29%
pest or weed control at 140 g/ha [2, 13]: 0 to 29%
pest or weed control at 35 g/ha [2, 14]: 0 to 29%
pest or weed control at 70 g/ha [2, 14]: 0 to 29%
pest or weed control at 140 g/ha [2, 14]: 0 to 29%

melting point: 151 °C
SMILES: COC(=O)c1nc(-c2ccc3ccoc3c2F)c(F)c(N)c1Cl [Compound 2.09]
pest or weed control at 35 g/ha [1, 3]: 85 to 94%
pest or weed control at 70 g/ha [1, 3]: 85 to 94%
pest or weed control at 140 g/ha [1, 3]: 85 to 94%
pest or weed control at 35 g/ha [1, 4]: 85 to 94%
pest or weed control at 70 g/ha [1, 4]: 95 to 100%
pest or weed control at 140 g/ha [1, 4]: 95 to 100%
pest or weed control at 35 g/ha [1, 5]: 60 to 74%
pest or weed control at 70 g/ha [1, 5]: 75 to 84%
pest or weed control at 140 g/ha [1, 5]: 85 to 94%
pest or weed control at 35 g/ha [1, 6]: 95 to 100%
pest or weed control at 70 g/ha [1, 6]: 95 to 100%
pest or weed control at 140 g/ha [1, 6]: 95 to 100%
pest or weed control at 35 g/ha [1, 7]: 95 to 100%
pest or weed control at 70 g/ha [1, 7]: 95 to 100%
pest or weed control at 140 g/ha [1, 7]: 95 to 100%
pest or weed control at 35 g/ha [1, 8]: 60 to 74%
pest or weed control at 70 g/ha [1, 8]: 75 to 84%
pest or weed control at 140 g/ha [1, 8]: 85 to 94%
pest or weed control at 35 g/ha [2, 9]: 0 to 29%
pest or weed control at 70 g/ha [2, 9]: 0 to 29%
pest or weed control at 140 g/ha [2, 9]: 0 to 29%
pest or weed control at 35 g/ha [2, 10]: 60 to 74%
pest or weed control at 70 g/ha [2, 10]: 85 to 94%
pest or weed control at 140 g/ha [2, 10]: 85 to 94%
pest or weed control at 35 g/ha [2, 11]: 0 to 29%
pest or weed control at 70 g/ha [2, 11]: 30 to 44%
pest or weed control at 140 g/ha [2, 11]: 30 to 44%
pest or weed control at 35 g/ha [2, 12]: 45 to 59%
pest or weed control at 70 g/ha [2, 12]: 60 to 74%
pest or weed control at 140 g/ha [2, 12]: 60 to 74%
pest or weed control at 35 g/ha [2, 13]: 0 to 29%
pest or weed control at 70 g/ha [2, 13]: 0 to 29%
pest or weed control at 140 g/ha [2, 13]: 0 to 29%
pest or weed control at 35 g/ha [2, 14]: 45 to 59%
pest or weed control at 70 g/ha [2, 14]: 60 to 74%
pest or weed control at 140 g/ha [2, 14]: 60 to 74%
